Where “and” joins values, the source holds several entries; their conditions need not be identical. Equal entries are not always repeated.

A word on the IC50: it is the concentration that inhibits the measured activity by half. As usually defined, the viability, T/C is the result in the treated group divided by that in the control group, in per cent.

In this assay the test system is 996289-038-R-J1-PDC complex spheroid viability. Kind of assay: Anticancer human tumor 996289-038-R-J1-PDC patient-derived colon adenocarcinoma cell line growth inhibition [CLK]. Particulars: for viability, T/C: stronger effect = lower value. The gist of the method: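 Multi-cell-type spheroids combined patient-derived tumor cells with HUVEC endothelial cells and human mesenchymal stem cells. Paired agents were dosed in half-log steps down from about clinical Cmax, or from 10 microM where Cmax was unknown.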

[1] abbreviates: curve of first compound, second compound 0.0316 µM.
Setting [2] is: curve of first compound, second compound 0.1 µM.
Where [3] appears, read: curve of first compound, second compound 0.316 µM.
[4] abbreviates: curve of first compound, second compound 1 µM.
Where [5] appears, read: curve of first compound, second compound 3.16 µM.
[6] abbreviates: curve of first compound, second compound 10 µM.
Setting [7] is: second compound 0.0316 µM, first compound 0.0316 µM.
[8] abbreviates: second compound 0.0316 µM, first compound 0.1 µM.
Setting [9] is: second compound 0.0316 µM, first compound 0.316 µM.
Where [10] appears, read: second compound 0.0316 µM, first compound 1 µM.
Setting [11] is: second compound 0.0316 µM, first compound 3.16 µM.
Where [12] appears, read: second compound 0.0316 µM, first compound 10 µM.
The mark [13] stands for this setting: second compound 0.1 µM, first compound 0.0316 µM.
Where [14] appears, read: second compound 0.1 µM, first compound 0.1 µM.
Where [15] appears, read: second compound 0.1 µM, first compound 0.316 µM.
Where [16] appears, read: second compound 0.1 µM, first compound 1 µM.
Where [17] appears, read: second compound 0.1 µM, first compound 3.16 µM.
[18] abbreviates: second compound 0.1 µM, first compound 10 µM.
Setting [19] is: second compound 0.316 µM, first compound 0.0316 µM.
Where [20] appears, read: second compound 0.316 µM, first compound 0.1 µM.
The mark [21] stands for this setting: second compound 0.316 µM, first compound 0.316 µM.
Where [22] appears, read: second compound 0.316 µM, first compound 1 µM.
The mark [23] stands for this setting: second compound 0.316 µM, first compound 3.16 µM.
The mark [24] stands for this setting: second compound 0.316 µM, first compound 10 µM.
The mark [25] stands for this setting: second compound 1 µM, first compound 0.0316 µM.
[26] abbreviates: second compound 1 µM, first compound 0.1 µM.
Setting [27] is: second compound 1 µM, first compound 0.316 µM.
Where [28] appears, read: second compound 1 µM, first compound 1 µM.
The mark [29] stands for this setting: second compound 1 µM, first compound 3.16 µM.
The mark [30] stands for this setting: second compound 1 µM, first compound 10 µM.
[31] abbreviates: second compound 3.16 µM, first compound 0.0316 µM.
[32] abbreviates: second compound 3.16 µM, first compound 0.1 µM.
Where [33] appears, read: second compound 3.16 µM, first compound 0.316 µM.
[34] abbreviates: second compound 3.16 µM, first compound 1 µM.
Setting [35] is: second compound 3.16 µM, first compound 3.16 µM.
The mark [36] stands for this setting: second compound 3.16 µM, first compound 10 µM.
[37] abbreviates: second compound 10 µM, first compound 0.0316 µM.
The mark [38] stands for this setting: second compound 10 µM, first compound 0.1 µM.
Setting [39] is: second compound 10 µM, first compound 0.316 µM.
[40] abbreviates: second compound 10 µM, first compound 1 µM.
The mark [41] stands for this setting: second compound 10 µM, first compound 3.16 µM.
[42] abbreviates: second compound 10 µM, first compound 10 µM.
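Note: spheroids exposed to the agents for 7 days before readout.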

For the compound `C=CC(=O)N1CCN(c2nc(=O)n(-c3c(C)ccnc3C(C)C)c3nc(-c4c(O)cccc4F)c(F)cc23)C(C)C1` (configuration not stated) + CNC(=O)c1ccc(Nc2nc(OC3CCCC3)c3c(-c4ccc5nc(C)oc5c4)c[nH]c3n2)c(OC)c1, the IC50 is, setting by setting: under setting [1], over 10 µM; under setting [2], over 10 µM; under setting [3], over 10 µM; under setting [4], over 10 µM; under setting [5], over 10 µM; under setting [6], over 10 µM. Also, the viability, T/C runs as follows: under setting [7], 110%; under setting [8], 105%; under setting [9], 109%; under setting [10], 121%; under setting [11], 126%; under setting [12], 121%. The viability, T/C was 124% under setting [13]; 109% under setting [14]; 121% under setting [15]; 112% under setting [16]; 137% under setting [17]; 123% under setting [18]. Moreover, the viability, T/C was 81% under setting [19]; 76.5% under setting [20]; 76.5% under setting [21]; 89.1% under setting [22]; 88.9% under setting [23]; 82% under setting [24]. The viability, T/C is, setting by setting: under setting [25], 68.7%; under setting [26], 63.5%; under setting [27], 66.8%; under setting [28], 68.3%; under setting [29], 74.1%; under setting [30], 68.7%. Moreover, the viability, T/C runs as follows: under setting [31], 57.1%; under setting [32], 59.5%; under setting [33], 59%; under setting [34], 61.7%; under setting [35], 70.3%; under setting [36], 59.2%. For the same compound, the viability, T/C is, setting by setting: under setting [37], 58.7%; under setting [38], 59.9%; under setting [39], 58%; under setting [40], 64.9%; under setting [41], 70.5%; under setting [42], 56.8%.

On to `CC(=O)O[C@H]1C(=O)[C@@]2(C)[C@H]([C@H](OC(=O)c3ccccc3)[C@]3(O)C[C@H](OC(=O)[C@H](O)[C@@H](NC(=O)c4ccccc4)c4ccccc4)C(C)=C1C3(C)C)[C@]1(OC(C)=O)CO[C@@H]1C[C@@H]2O` + CN1CCN(c2cc(C(=O)Nc3cc4cc(-c5cnn(C)c5)ccc4cn3)ccn2)CC1, for which the IC50 reads like this: under setting [1], over 10 µM; under setting [2], 0.947 µM; under setting [3], 0.0507 µM; under setting [4], under 0.0316 µM; under setting [5], under 0.0316 µM; under setting [6], under 0.0316 µM. Also, the viability, T/C by setting is: under setting [7], 94%; under setting [8], 80.4%; under setting [9], 64.1%; under setting [10], 57.5%; under setting [11], 54.8%; under setting [12], 54.5%. In addition, the viability, T/C by setting is: under setting [13], 83.2%; under setting [14], 77.6%; under setting [15], 58.6%; under setting [16], 50%; under setting [17], 48.1%; under setting [18], 48.2%. Moreover, the viability, T/C is 52.1% under setting [19]; 49.1% under setting [20]; 39.1% under setting [21]; 34.2% under setting [22]; 36.9% under setting [23]; 38.3% under setting [24]. For the same compound, the viability, T/C is, setting by setting: under setting [25], 2.95%; under setting [26], 3.46%; under setting [27], 2.81%; under setting [28], 5.29%; under setting [29], 3.96%; under setting [30], 3.89%. The viability, T/C by setting is: under setting [31], 2.65%; under setting [32], 0.84%; under setting [33], 1.67%; under setting [34], 2.13%; under setting [35], 1.35%; under setting [36], 0.72%. Besides, the viability, T/C is, setting by setting: under setting [37], 1.84%; under setting [38], 1.49%; under setting [39], 0.61%; under setting [40], 0.57%; under setting [41], 0.83%; under setting [42], 2.14%.

In the case of `C=CC(=O)Nc1cc(Nc2nccc(-c3cn(C)c4ccccc34)n2)c(OC)cc1N(C)CCN(C)C`, the viability, T/C is, setting by setting: (compound 0.000949 µM) 99.1% and 105%; (compound 0.003 µM) 106% and 96.1%; (compound 0.00949 µM) 101% and 98.5%; (compound 0.03 µM) 92.6% and 93.1%; (compound 0.0949 µM) 93% and 92%; (compound 0.3 µM) 81.2% and 69.9%. Further, under “curve of compound”, the half-inhibitory concentration (IC50) was over 0.3 µM.

In the case of `CC1(C)CCC(CN2CCN(c3ccc(C(=O)NS(=O)(=O)c4ccc(NCC5CCOCC5)c([N+](=O)[O-])c4)c(Oc4cnc5[nH]ccc5c4)c3)CC2)=C(c2ccc(Cl)cc2)C1`, the viability, T/C runs as follows: (compound 0.0316 µM) 108% and 106%; (compound 0.1 µM) 94.2% and 83.6%; (compound 0.316 µM) 101% and 109%; (compound 1 µM) 109% and 100%; (compound 3.16 µM) 118% and 121%; (compound 10 µM) 38.2% and 44.7%. The IC50 (curve of compound) is 8.2 µM and 9.04 µM.

Take `C=CC(=O)N1CCN(c2nc(=O)n(-c3c(C)ccnc3C(C)C)c3nc(-c4c(O)cccc4F)c(F)cc23)C(C)C1` (configuration not stated): the viability, T/C by setting is: (compound 0.0316 µM) 97.5% and 115%; (compound 0.1 µM) 85.3% and 98%; (compound 0.316 µM) 109% and 101%; (compound 1 µM) 112% and 114%; (compound 3.16 µM) 124% and 117%; (compound 10 µM) 103% and 116%. Also, the IC50 (curve of compound) is over 10 µM.

Take `CCc1c2c(nc3ccc(O)cc13)-c1cc3c(c(=O)n1C2)COC(=O)[C@]3(O)CC`: the viability, T/C reads like this: (compound 0.00316 µM) 98.9% and 99.3%; (compound 0.01 µM) 81.9% and 72.3%; (compound 0.0316 µM) 60.8% and 61.9%; (compound 0.1 µM) 55.7% and 58.6%; (compound 0.316 µM) 45.8% and 50.8%; (compound 1 µM) 25.7% and 30.8%. Moreover, for the setting “curve of compound”, the IC50 is 0.135 µM and 0.165 µM.

The values are drawn from PubChem BioAssay AID2060600 (Molecular Pharmacology Branch, DTP, NCI, 2025).
